Laboratory results from PubChem BioAssay AID248 (DTP/NCI, 2004).
“And” between values parts separate entries of the source, which are not always exact repeats. Equal entries are not always repeated. Inconclusive results and toxic doses are left out. Rule as the data show it: active = T/C of 150% or more; inactive = T/C below 125%.

System: L1210 leukemia ip in BDF1 mice, survival T/C
Assay: NCI In Vivo Anticancer Drug Screen. Data for tumor model L1210 Leukemia (intraperitoneal) in B6D2F1 (BDF1) mice
Details: endpoint: mean survival time, higher = longer survival
Method in brief: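 In this screen, tumor-bearing mice given compound are compared to those given vehicle, and their survival values are reported as a treated-to-control quotient.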

[1] = dose: 100.0 mg/kg/injection, schedule: Q01DX001 (ip), vehicle: saline
[2] = dose: 100.0 mg/kg/injection, schedule: Q04DX003 (ip), vehicle: saline
[3] = dose: 200.0 mg/kg/injection, schedule: Q01DX001 (ip), vehicle: saline
[4] = dose: 400.0 mg/kg/injection, schedule: Q01DX001 (ip), vehicle: saline
[5] = dose: 100.0 mg/kg/injection, schedule: Q01DX009 (ip), vehicle: Klucel (hydroxypropylcellulose) (HPC)
[6] = dose: 200.0 mg/kg/injection, schedule: Q01DX009 (ip), vehicle: Klucel (hydroxypropylcellulose) (HPC)
[7] = dose: 200.0 mg/kg/injection, schedule: Q04DX003 (ip), vehicle: saline
[8] = dose: 400.0 mg/kg/injection, schedule: Q04DX003 (ip), vehicle: saline
[9] = dose: 100.0 mg/kg/injection, schedule: Q04DX003 (ip), vehicle: Klucel (hydroxypropylcellulose) (HPC)
[10] = dose: 200.0 mg/kg/injection, schedule: Q04DX003 (ip), vehicle: Klucel (hydroxypropylcellulose) (HPC)
[11] = dose: 400.0 mg/kg/injection, schedule: Q04DX003 (ip), vehicle: Klucel (hydroxypropylcellulose) (HPC)
[12] = dose: 100.0 mg/kg/injection, schedule: Q04DX003 (ip), vehicle: saline with Tween-80
[13] = dose: 200.0 mg/kg/injection, schedule: Q04DX003 (ip), vehicle: saline with Tween-80
[14] = dose: 400.0 mg/kg/injection, schedule: Q04DX003 (ip), vehicle: saline with Tween-80
[15] = dose: 12.5 mg/kg/injection, schedule: Q04DX002 (ip), vehicle: saline with Tween-80
[16] = dose: 100.0 mg/kg/injection, schedule: Q01DX009 (ip), vehicle: saline
[17] = dose: 200.0 mg/kg/injection, schedule: Q01DX009 (ip), vehicle: saline
[18] = dose: 400.0 mg/kg/injection, schedule: Q01DX009 (ip), vehicle: saline
[19] = dose: 400.0 mg/kg/injection, schedule: Q01DX009 (ip), vehicle: Klucel (hydroxypropylcellulose) (HPC)
[20] = dose: 6.25 mg/kg/injection, schedule: Q01DX009 (ip), vehicle: saline with Tween-80

Measured: T/C

C1=C(c2ccccc2)S/C(=C/c2ccccc2)S1
inactive: dose: 25.0 mg/kg/injection, schedule: Q01DX009 (ip), vehicle: saline with Tween-80 96 % of control | dose: 50.0 mg/kg/injection, schedule: Q01DX009 (ip), vehicle: saline with Tween-80 96 % of control | dose: 50.0 mg/kg/injection, schedule: Q04DX003 (ip), vehicle: saline 88 % of control | [1] 93 % of control | dose: 100.0 mg/kg/injection, schedule: Q01DX009 (ip), vehicle: saline with Tween-80 94 % of control | [2] 87 % of control | [3] 88 % of control | [4] 88 % of control

Clc1nnc(Nc2ccccc2)c2ccccc12
inactive: [5] 96 % of control | [6] 93 % of control | [7] 93 % of control | [8] 91 % of control

CC(C)(C)OC(=O)C1(c2ccccc2)OC1c1ccccc1 (stereo not drawn)
inactive: [9] 105 % of control | [10] 100 % of control | [11] 96 % of control

O=C(Nc1cccc2c1C(=O)c1cccc(Cl)c1C2=O)c1ccccc1
inactive: [12] 87 % of control | [13] 89 % of control | [14] 86 % of control

NC(CSS(=O)(=O)O)=NCc1ccoc1
inactive: [15] 98 % of control | dose: 25.0 mg/kg/injection, schedule: Q04DX002 (ip), vehicle: saline with Tween-80 98 % of control | dose: 50.0 mg/kg/injection, schedule: Q04DX002 (ip), vehicle: saline with Tween-80 95 % of control and 98 % of control

CCCC1CCC(=C2C(=O)CCC2=O)O1 (stereo not drawn)
inactive: dose: 3.13 mg/kg/injection, schedule: Q01DX009 (ip), vehicle: saline 95 % of control | dose: 6.25 mg/kg/injection, schedule: Q01DX009 (ip), vehicle: saline 98 % of control | dose: 12.5 mg/kg/injection, schedule: Q01DX009 (ip), vehicle: saline 106 % of control | dose: 25.0 mg/kg/injection, schedule: Q01DX009 (ip), vehicle: saline 104 % of control

CC(CCc1cccc2ccccc12)(C(=O)O)C(=O)O
inactive: dose: 100.0 mg/kg/injection, schedule: Q01DX009 (ip), vehicle: saline sonified 92 % of control | [9] 104 % of control | dose: 200.0 mg/kg/injection, schedule: Q01DX009 (ip), vehicle: saline sonified 104 % of control | [10] 100 % of control | [11] 94 % of control

Nc1nc(N)c(-c2ccc(Cl)cc2)c(/C=C/c2ccc([N+](=O)[O-])cc2)n1
inactive: dose: 50.0 mg/kg/injection, schedule: Q01DX001 (ip), vehicle: saline 104 % of control | [1] 93 % of control | [3] 93 % of control | [4] 96 % of control

Cc1cc2oc(/C=C/C(=O)c3ccc([N+](=O)[O-])cc3)c(C)c2cc1C
inactive: [9] 97 % of control | [10] 90 % of control | [11] 100 % of control

CCCCCC(Oc1ccc(Cl)cc1)C(=O)OCC (stereo not drawn)
inactive: [16] 101 % of control | [17] 90 % of control | [18] 114 % of control

Cc1cc([N+](=O)[O-])c(N/N=C/c2c[nH]c3ccccc23)c([N+](=O)[O-])c1
inactive: [16] 102 % of control | [17] 93 % of control | [18] 98 % of control

CC1(C)Cc2ccccc2C1=O
inactive: dose: 100.0 mg/kg/injection, schedule: Q04DX002 (ip), vehicle: saline with Tween-80 97 % of control | dose: 200.0 mg/kg/injection, schedule: Q04DX002 (ip), vehicle: saline with Tween-80 91 % of control | dose: 400.0 mg/kg/injection, schedule: Q04DX002 (ip), vehicle: saline with Tween-80 94 % of control

CC(=O)OCCCc1ccccc1
inactive: [5] 94 % of control | [9] 98 % of control | [6] 95 % of control | [10] 97 % of control | [19] 94 % of control | [11] 94 % of control

C=CCCCCCCCCC(=O)NC(C)C(C)(C)C (stereo not drawn)
inactive: [12] 87 % of control | [13] 98 % of control

CC(COC(=O)c1ccccc1)(COC(=O)c1ccccc1)COC(=O)c1ccccc1
inactive: [5] 96 % of control | [9] 113 % of control | [6] 104 % of control | [10] 99 % of control | [19] 107 % of control | [11] 96 % of control

N#CC(C(=O)c1ccccc1)c1cccc2ccccc12 (stereo not drawn)
inactive: dose: 50.0 mg/kg/injection, schedule: Q01DX009 (ip), vehicle: Klucel (hydroxypropylcellulose) (HPC) 101 % of control | [5] 95 % of control | [9] 95 % of control | [6] 103 % of control | [10] 91 % of control | [11] 91 % of control

CCC[As](=O)(O)Cc1ccccc1C
inactive: dose: 0.78 mg/kg/injection, schedule: Q01DX009 (ip), vehicle: saline with Tween-80 95 % of control | dose: 1.56 mg/kg/injection, schedule: Q01DX009 (ip), vehicle: saline with Tween-80 97 % of control | dose: 1.56 mg/kg/injection, schedule: Q04DX003 (ip), vehicle: saline with Tween-80 93 % of control | dose: 3.12 mg/kg/injection, schedule: Q01DX009 (ip), vehicle: saline with Tween-80 97 % of control | dose: 3.12 mg/kg/injection, schedule: Q04DX002 (ip), vehicle: saline with Tween-80 103 % of control | dose: 3.12 mg/kg/injection, schedule: Q04DX003 (ip), vehicle: saline with Tween-80 97 % of control | dose: 6.25 mg/kg/injection, schedule: Q01DX001 (ip), vehicle: saline with Tween-80 106 % of control | [20] 101 % of control and 103 % of control | dose: 6.25 mg/kg/injection, schedule: Q04DX003 (ip), vehicle: saline with Tween-80 95 % of control | dose: 12.5 mg/kg/injection, schedule: Q01DX001 (ip), vehicle: saline with Tween-80 109 % of control | [15] 90 % of control | dose: 12.5 mg/kg/injection, schedule: Q04DX003 (ip), vehicle: saline with Tween-80 103 % of control

CC1(C)CC(=O)C(C)(C)C(=O)C1
inactive: [20] 103 % of control | dose: 12.5 mg/kg/injection, schedule: Q01DX009 (ip), vehicle: saline with Tween-80 98 % of control | dose: 25.0 mg/kg/injection, schedule: Q04DX003 (ip), vehicle: saline with Tween-80 102 % of control

Nc1nc2c(c(-c3ccccc3)n1)CN(CCCC(=O)O)C2=O
inactive: [1] 103 % of control | [2] 100 % of control | [3] 105 % of control | [7] 98 % of control | [4] 97 % of control | [8] 100 % of control

CC1CCC(C(C)C)C(NCc2cc(Br)cc(Br)c2O)C1 (stereo not drawn)
inactive: [9] 98 % of control | [10] 92 % of control | [11] 98 % of control

CCOC(=O)CCCc1ccccc1
inactive: [12] 107 % of control | [13] 90 % of control | [14] 93 % of control
